BindingDB's records for PubMed 8627566 (Hoechst Marion Roussel, 1996)
Starred links: 1 amine or outer side, 2 acyl side, 3 side chain; linkers in the order of their positions; H or OH if unused. Positions of bridges follow the written chain, without caps; N, C: chain ends. Non-standard residues stand in square brackets, D forms with d. Residues, ends and D or L forms follow the SMILES beside them. *: point of attachment. X2 = CN(C(=Cc1ccc(O)cc1)C(=O)[*:2])[*:1]; X1 = CCCCCc1ccccc1CCC(=O)*

Experiments:
Neuromedin-K receptor = target: T1, Neuromedin-K receptor (Cavia porcellus, UniProt P30098)
T1 sequence (P30098 whole entry): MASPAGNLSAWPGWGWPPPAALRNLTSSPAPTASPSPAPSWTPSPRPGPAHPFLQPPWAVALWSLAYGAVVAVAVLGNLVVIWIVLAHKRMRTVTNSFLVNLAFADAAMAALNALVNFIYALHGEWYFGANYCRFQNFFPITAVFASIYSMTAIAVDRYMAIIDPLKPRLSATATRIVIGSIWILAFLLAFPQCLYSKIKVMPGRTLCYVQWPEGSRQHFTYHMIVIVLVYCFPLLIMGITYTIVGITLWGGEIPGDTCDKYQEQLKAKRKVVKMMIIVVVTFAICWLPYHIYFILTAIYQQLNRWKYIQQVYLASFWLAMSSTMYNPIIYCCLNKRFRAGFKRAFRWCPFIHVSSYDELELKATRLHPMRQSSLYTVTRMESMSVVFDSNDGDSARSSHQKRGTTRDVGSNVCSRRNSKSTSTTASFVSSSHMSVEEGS

Substance-K receptor [1] = target: T2, Substance-K receptor (Homo sapiens, UniProt P21452)
T2 sequence (P21452 whole entry): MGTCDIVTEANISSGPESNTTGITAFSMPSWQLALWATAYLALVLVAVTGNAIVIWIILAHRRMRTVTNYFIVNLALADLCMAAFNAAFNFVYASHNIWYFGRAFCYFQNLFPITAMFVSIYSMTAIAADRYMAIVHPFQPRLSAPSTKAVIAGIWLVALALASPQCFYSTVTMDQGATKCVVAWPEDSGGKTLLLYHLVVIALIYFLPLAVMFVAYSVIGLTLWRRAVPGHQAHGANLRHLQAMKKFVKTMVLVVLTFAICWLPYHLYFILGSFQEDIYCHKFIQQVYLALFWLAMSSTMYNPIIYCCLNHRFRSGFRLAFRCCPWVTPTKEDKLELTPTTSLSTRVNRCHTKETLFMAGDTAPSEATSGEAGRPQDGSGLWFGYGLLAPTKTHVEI

Substance-K receptor [2] = target: T3, Substance-K receptor (Mesocricetus auratus, UniProt P51144)
T3 sequence (P51144 whole entry): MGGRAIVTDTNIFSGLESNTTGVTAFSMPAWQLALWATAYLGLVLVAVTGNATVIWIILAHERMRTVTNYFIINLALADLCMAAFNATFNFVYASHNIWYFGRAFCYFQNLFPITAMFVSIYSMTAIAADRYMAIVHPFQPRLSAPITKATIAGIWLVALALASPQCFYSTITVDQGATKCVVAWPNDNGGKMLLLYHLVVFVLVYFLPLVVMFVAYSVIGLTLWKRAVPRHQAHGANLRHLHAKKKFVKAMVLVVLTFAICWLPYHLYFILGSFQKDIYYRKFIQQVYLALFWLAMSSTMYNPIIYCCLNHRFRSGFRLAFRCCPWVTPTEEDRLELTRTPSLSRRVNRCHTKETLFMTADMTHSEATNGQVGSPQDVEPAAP

Substance-P receptor [3] = target: Substance-P receptor (Rattus norvegicus, UniProt P14600)
Chain of Substance-P receptor (Rattus norvegicus, UniProt P14600) (P14600 whole entry): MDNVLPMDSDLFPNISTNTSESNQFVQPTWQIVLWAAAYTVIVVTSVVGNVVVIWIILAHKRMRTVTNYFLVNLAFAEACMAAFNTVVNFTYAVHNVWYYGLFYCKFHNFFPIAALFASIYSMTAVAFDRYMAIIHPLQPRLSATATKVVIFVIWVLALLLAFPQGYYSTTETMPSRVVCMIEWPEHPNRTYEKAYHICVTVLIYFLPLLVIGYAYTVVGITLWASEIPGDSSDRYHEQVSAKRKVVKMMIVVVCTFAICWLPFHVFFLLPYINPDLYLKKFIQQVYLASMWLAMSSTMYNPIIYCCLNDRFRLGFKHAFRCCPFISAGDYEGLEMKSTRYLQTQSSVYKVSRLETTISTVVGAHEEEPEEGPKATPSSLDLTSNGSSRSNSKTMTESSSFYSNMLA

Substance-P receptor [4] = target: Substance-P receptor (Cavia porcellus, UniProt P30547)
Chain of Substance-P receptor (Cavia porcellus, UniProt P30547) (P30547 whole entry): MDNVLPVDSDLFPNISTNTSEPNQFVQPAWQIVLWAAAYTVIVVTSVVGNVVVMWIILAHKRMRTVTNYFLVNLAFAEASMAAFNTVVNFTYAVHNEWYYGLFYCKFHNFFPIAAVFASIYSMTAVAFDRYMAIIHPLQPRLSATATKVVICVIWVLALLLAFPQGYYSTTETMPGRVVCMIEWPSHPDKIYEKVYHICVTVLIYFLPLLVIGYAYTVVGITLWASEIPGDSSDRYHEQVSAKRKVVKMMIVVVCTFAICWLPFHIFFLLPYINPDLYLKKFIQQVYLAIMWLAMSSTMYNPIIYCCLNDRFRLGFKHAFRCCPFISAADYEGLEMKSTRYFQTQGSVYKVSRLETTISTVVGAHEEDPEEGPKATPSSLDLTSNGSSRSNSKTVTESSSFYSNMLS

Substance-P receptor [5] = target: Substance-P receptor (Homo sapiens, UniProt P25103)
Chain of Substance-P receptor (Homo sapiens, UniProt P25103) (P25103 whole entry): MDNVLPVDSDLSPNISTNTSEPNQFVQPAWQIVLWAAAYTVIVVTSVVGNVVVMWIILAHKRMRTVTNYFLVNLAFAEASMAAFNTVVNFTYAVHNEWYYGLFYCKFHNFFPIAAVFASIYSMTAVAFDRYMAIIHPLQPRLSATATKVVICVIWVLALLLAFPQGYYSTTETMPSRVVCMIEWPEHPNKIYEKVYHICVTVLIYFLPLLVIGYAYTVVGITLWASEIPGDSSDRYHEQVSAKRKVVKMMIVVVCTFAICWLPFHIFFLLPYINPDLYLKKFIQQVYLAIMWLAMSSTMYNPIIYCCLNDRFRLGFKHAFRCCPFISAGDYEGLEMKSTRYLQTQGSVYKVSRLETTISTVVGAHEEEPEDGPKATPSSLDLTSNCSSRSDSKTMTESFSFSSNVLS

Substance-K receptor [6] = target: T4, Substance-K receptor (Bos taurus, UniProt P05363)
T4 sequence (P05363 whole entry): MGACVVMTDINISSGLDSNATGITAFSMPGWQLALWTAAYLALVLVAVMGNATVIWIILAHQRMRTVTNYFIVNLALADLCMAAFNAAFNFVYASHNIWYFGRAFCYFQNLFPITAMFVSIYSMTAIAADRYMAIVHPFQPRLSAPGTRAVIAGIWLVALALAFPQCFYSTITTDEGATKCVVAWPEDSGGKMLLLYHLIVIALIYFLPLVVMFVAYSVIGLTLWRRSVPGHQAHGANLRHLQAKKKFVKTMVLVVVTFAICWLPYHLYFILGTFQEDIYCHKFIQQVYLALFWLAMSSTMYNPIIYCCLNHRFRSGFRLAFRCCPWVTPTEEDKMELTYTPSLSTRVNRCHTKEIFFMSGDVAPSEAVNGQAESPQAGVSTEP

SMILES	Ki (Neuromedin-K receptor)	Ki (Substance-K receptor [1])	Ki (Substance-K receptor [2])	Ki (Substance-P receptor [3])	Ki (Substance-P receptor [4])	Ki (Substance-P receptor [5])	Ki (Substance-K receptor [6])
COc1ccccc1CN[C@H]1C2CCN(CC2)[C@H]1C(c1ccccc1)c1ccccc1	> 10000 nM	> 10000 nM					
COc1cc(C(=O)N2CC[C@@](CCN3CCC(C(N)=O)(c4ccccc4)CC3)(c3ccc(Cl)c(Cl)c3)C2)cc(OC)c1OC	21 nM	8.4 nM	6.98 nM	408 nM	2.12 nM	3.11 nM	8.49 nM
COc1cc(C(=O)N2CC[C@](CCN3CCC(C(N)=O)(c4ccccc4)CC3)(c3ccc(Cl)c(Cl)c3)C2)cc(OC)c1OC	54.3 nM	21 nM			5.88 nM	7.07 nM	
COc1cc(C(=O)N2CC[C@](CCN3CCC(C(N)=O)(c4ccccc4)CC3)(c3ccc(Cl)c(Cl)c3)C2)cc(OC)c1OC [1-{2-[(R)-3-(3,4-Dichloro-phenyl)-1-(3,4,5-trimethoxy-benzoyl)-pyrrolidin-3-yl]-ethyl}-4-phenyl-piperidine-4-carboxylic acid amide]	2310 nM	760 nM	711 nM	2200 nM	183 nM	160 nM	207 nM
CCCCCc1ccccc1CCC(=O)NC1C(=O)N(C)C(=Cc2ccc(O)cc2)C(=O)NC(CC(C)C)C(=O)NC(Cc2ccccc2)C(=O)NC(C(C)O)C(=O)NC(CC(N)=O)C(=O)NC(CO)C(=O)OC1C (stereo not given) [CAS_6437864] (X1-T[X2]LFTNS; ester 1-C; configuration not given here)	3550 nM	434 nM	3590 nM	228 nM	98.7 nM	215 nM	311 nM
CN(Cc1ccccc1)C(=O)[C@@H](Cc1ccc2ccccc2c1)NC(=O)C1C[C@@H](O)CN1C(=O)c1cn(C)c2ccccc12 (stereo not given in full) [FK 888]	5620 nM	1520 nM		2070 nM	3.13 nM	1.49 nM	
COc1cc(C(=O)N2CC[C@@](CCN3CCC(C(N)=O)(c4ccccc4)CC3)(c3ccc(Cl)c(Cl)c3)C2)cc(OC)c1OC [MDL 105,212A (R)-enantiomer]		7.93 nM			2.99 nM	3.69 nM	8.4 nM
CSCC[C@H](NC(=O)[C@H](CC(C)C)NC(=O)CNC(=O)[C@@H](NC(=O)[C@H](Cc1ccccc1)NC(=O)[C@H](CO)NC(=O)[C@H](CC(=O)O)NC(=O)[C@@H](NC(=O)[C@H](CCCCN)NC(=O)[C@@H](N)Cc1cnc[nH]1)[C@@H](C)O)C(C)C)C(N)=O [Neurokinin alpha]			1.8 nM				
COc1ccccc1CC(=N)N1C[C@@H]2C(=O)CCC(c3ccccc3)(c3ccccc3)[C@@H]2C1 [RP-67580]				8.29 nM	36 nM		
CC(=O)NC1(c2ccccc2)CCN(CCC(CN(C)C(=O)c2ccccc2)c2ccc(Cl)c(Cl)c2)CC1 (stereo not given) [SR 48968]	208 nM	0.44 nM	7.32 nM		217 nM	593 nM	0.71 nM
